Data on 1 compound can be found in patent US6632832B1 (Dabur Research Foundation, priority 2002, dated 2003).

The test system of data set [1] is Human Colon, Ovary, melanoma, Leukemia, Glioblastoma, Prostate, oral and Lung tumor cell lines. The data set is described as follows: MTT cytotoxicity assay, summary over the tumor cell line panel. Format: cell-based. As to the method:
After 72 hours, the assay was terminated and percent cyotoxicities calculated.

The next data set deals with Protein Kinase C (PKC). The data set is described as follows: PKC activity ELISA on lysates of treated MiaPaCa2 cells. The class given is cell-based, human. As to conditions: 5-100 ug/ml for 15 minutes. As for the experimental part: Briefly 0.5×10^6 cells of human pancreatic cancer cells (MiaPaCa2) were plated per well in 6 well tissue culture plates in 2 ml of DMEM containing 10% Fetal calf serum. The cells were incubated overnight at 37° C. and 5% CO2. The medium was changed to DMEM without serum. […] The control cells were treated with 1% DMSO in DMEM. […] The cells were scraped with sterile cell scrapers, and spun at 1500 rpm for 5 minutes. The cell pellet was dissolved in 1 ml of ice cold sample preparation buffer (50 mM Tris-HCl, 50 mM 2-mercaptoethanol, 10 mM EGTA, 5 mM EDTA, 1 mM PMSF, 10 mM Benzamidine, pH 7.5). The cell pellets were sonicated four to five times each with time intervals of 5-10 seconds. The cells were centrifuged at 100,000×g for a period of 60 minutes at 4° C. The supernatant was aspirated from each set of experiments. The reaction mixture for quantitation of the PKC activity contained 25 mM Tris-HCl (pH7.0), 3 mM Mgc12, 0.1 mM ATP, 2 mM CaCl2, 50 ug/ml Phosphatidylserine, 0.5 mM EDTA, 1 mM EGTA, and 5 mM 2 mercaptoethanol. The lysates from the cells not treated with Carvedilol were the control experiments. The reaction mixture was preincubated for 5 minutes at 25° C. […] The optical density was read at 492 nm, and the PKC activity expressed as percent of that in control cells.

For the compound `COc1ccccc1OCCNCC(O)COc1cccc2[nH]c3ccccc3c12` (racemic) [Carvedilol, (±)-1-(carbazol-4-yloxy)-3-[(2-(o-methoxyphenoxy)ethyl]amino]-2-propanol], the “cytotoxicity at a fixed concentration (FIG. 1)” value in data set [1] (20 μg/ml, all of the above-mentioned tumor cell lines, except oral) is given as “high cytotoxicity effect”. Further, in data set [1] (Colon, Ovary, melanoma, Leukemia, Glioblastoma, Prostate, oral and Lung tumor cell lines), the ED50 values result is “less than 20 μg/ml”. Also, in the data set on Protein Kinase C (PKC), the “effect on PKC activity (FIG. 4)” value is “inhibits the PKC activity in a dose dependent manner”.
